Measured values reported in patent US10213494B2, “Treatment of synucleinopathies” (The Brigham and Women's Hospital, Inc., priority 2007, dated 2019).

Experiments:
[1] = test system: A30P, E46K, A53T, S129D, S129A and DQ/AA variants of α-synuclein in MES23.5 cells; test: Sandwich ELISA of mutant α-synuclein variants in MES23.5 cells co-transfected with CTSD cDNA; format: cell-based, human; conditions: cathepsin D cDNA 5 μg/10 cm dish
Procedure: (§1) Sera from six rabbits were raised and affinity-purified at Open Biosystems, Inc. (openbiosystems.com) against recombinant, full-length human αS. Recombinant αS had been HPLC- and MS-characterized and subjected to amino acid composition and protein concentration analyses. For ELISA, 384-well MaxiSorp plates (Nunc, Inc) were coated with 50 μl/well capturing polyclonal Ab (hSA-2) diluted in coating buffer (NaHCO3 with 0.2% NaN3, pH 9.6). Following washes with PBS/0.05% Tween-20 (PBS-T), plates were blocked for 2 hours at 37° C. in blocking buffer (1.125% fish skin gelatin; PBS-T). After 4 washes, samples were loaded and incubated at 4° C. for 12 hours. Biotinylated Syn-1 mAb (as the assaying Ab) was generated using 200 μg Sulfo-NHS-LC Biotin (Pierce), diluted in blocking buffer and added to the plate for 2 hours at 37° C. Following 4 washes, ExtrAvidin phosphatase (Sigma) diluted in blocking buffer was applied for 1 hr at 37° C. Color development was carried out by using Fast-p-Nitrophenyl Phosphate (Sigma) and monitored kinetically at OD 405 nm every 5 minutes for up to 60 minutes.
To examine whether Cathepsin D could also reduce the levels of missense mutation-carrying αS proteins, MES23.5 cells were transfected with low amounts (0.5 μg/10 cm dish) of SNCA cDNA encoding either the A30P, E46K or A53T variants of α-synuclein which are linked to familial Parkinson Disease in humans, as well as a S129D and a S129A mutant. Phosphorylation of αS at the Serine 129 residue is known to be a pathological hallmark of αS aggregates in vivo (Anderson J et al., 2006, J Biol Chem, 281:29739-29752). Mutation of a Ser residue to Asp is known in the art to mimic sustained, serine-based phosphorylation. The S129A mutant, a phosphorylation-incompetent mutant of αS, was also included for comparison.
As shown in the bar graph of FIG. 7, the co-expression of Cathepsin D-encoding CTSD cDNA (5 μg/10 cm dish) with either A30P, E46K, A53T, S129D, or S129A αS caused a similar degree reduction in αS levels for all αS proteins examined, when compared to their co-expression with empty vector DNA. When comparing the changes in α-synuclein steady-state to well-characterized levels of recombinant α-synuclein protein that was loaded in parallel, it was estimated that cathepsin D over-expression (at a cDNA concentration of 5 μg/10 cm dish) led to intracellular α-synuclein levels that were 23.98+/−3.57%, 33.08+/−18.51%, 39.21+/−14.63%, 34.84+/−11.36% and 34.31+/−13.39% of cognate control levels, for A30P, E46K, A53T, S129D, or S129A αS polypeptides, respectively (n=2 (−3) from 2-3 independent experiments).
Of note, residues D98 and Q99 of αS represent the motif by which αS is recognized by the Lamp2a receptor during chaperone mediated autophagy (CMA); Cuervo et al, 2004, Science, vol 305, pp 1292-1295). To investigate the importance of this motif in the αS-lowering action induced by cathepsin D, MES 23.5 cells were also transfected with a cDNA (0.5 μg/10 cm dish) encoding a mutant αS variant, where the D98 and Q99 residues had both been changed to Alanine (A) by site-directed mutagenesis (i.e., DQ/AA-variant of αS). When comparing the changes in the DQ/AA-αS steady-state to well-characterized levels of recombinant α-synuclein protein that were loaded in parallel, it was estimated that cathepsin D over-expression (5 μg/10 cm dish) led to intracellular DQ/AA αS levels that were 22.14+/−5.32% of the vector control levels, (n=3, from 3 independent experiments; not shown).

[2] = test system: α-synuclein protein (wild-type, human) in MES23.5 cells; test: Sandwich ELISA of intracellular α-synuclein in MES23.5 cells co-transfected with wild-type human SNCA cDNA and lysosomal enzyme cDNA; format: cell-based; conditions: for intracellular α-synuclein level, % of control levels: n=2
Procedure: as §1
To optimize a ‘DNA: LIPOFECTAMINE® 2000’ ratio with low cell toxicity, MES23.5 cells were transfected with either 0.25, 0.5 or 1 μg αS-encoding, wild-type, human SNCA cDNA plus empty vector cDNA up to a total of 5.5 μg DNA per 10 cm dish. 24 hours after transfection, cell lysates were harvested as described above. For serial dilutions of cell lysates, blocking buffer containing 0.5% lysate from vector-transfected wells was used as diluent, which was also used to create the blank and the corresponding standard curve of recombinant human αS. Saturation kinetics were examined for identification of time point(s) where standards and sample dilutions were in the log phase.
MES cells were transfected with 0.5 μg per 10 cm dish of αS-encoding SNCA cDNA-carrying plasmid, plus 5 μg per 10 cm dish of wild-type or mutant, human GBA-encoding plasmid. The GBA variants used were wild type, N370S, D409H, L444P, E235A, and E340A. These 5 GBA mutants were created by site-directed mutagenesis, using the Quickchange® kit (Stratagene), and sequence-verified. The N370S, D409H and L444P are known to occur (in the homozygous or compound heterozygous state) in Gaucher disease in the heterozygous state in Parkinson Disease patients and/or patients with dementia with Lewy bodies. The E235A and E340A mutant GBA proteins are not known to occur in people.
24 hours after transfection, MES cells were lysed as described above and all lysates were analyzed by ELISA. […] This is in contrast to the result observed in Example 5 above. The observed discrepancy can reflect the differences in total DNA transfected in the two paradigms (FIG. 2B; FIG. 2C versus FIG. 4), thereby leading to changes in the DNA:LIPOFECTAMINE® 2000 ratio, and in the role of co-expressed prosaposin (saposin C). It is therefore conceivable that wild-type GBA can have variable effects on αS levels in these MES23.5 cells, depending on the rate of αS import into lysosomes and the composition as well as activation state of more than one lysosomal enzyme.
MES23.5 cells were transfected with 0.5 μg per 10 cm dish of an αS-encoding, wild-type, human SNCA cDNA-carrying plasmid (referred to as MES-hSNCA WT cells in the Western blot shown in FIG. 6), plus either 1.25, 2.5 or 5 μg per 10 cm dish of a human Cathepsin D-encoding CTSD cDNA plasmid, which was purchased from OriGene Technologies, Inc., and was under the control of a CMV promoter. The Cathepsin D clone was fully sequence-verified after isolation and maxiprep. Each transfection arm was balanced with empty vector DNA up to a total of 5.5 μg DNA per 10 cm dish. 24 hours after transfection, cells were lysed, and the resulting lysates were analyzed by the sandwich ELISA described herein. […]

## cathepsin D: human lysosomal aspartyl protease expressed from CTSD cDNA plasmid under a CMV promoter
[1]; A30P αS
  intracellular α-synuclein level, % of cognate control levels: 23.98+/−3.57%
[1]; A53T αS
  intracellular α-synuclein level, % of cognate control levels: 39.21+/−14.63%
[1]; DQ/AA αS (D98A/Q99A), n=3
  intracellular DQ/AA αS level, % of vector control levels: 22.14+/−5.32%
[1]; E46K αS
  intracellular α-synuclein level, % of cognate control levels: 33.08+/−18.51%
[1]; S129A αS
  intracellular α-synuclein level, % of cognate control levels: 34.31+/−13.39%
[1]; S129D αS
  intracellular α-synuclein level, % of cognate control levels: 34.84+/−11.36%
[2]; cathepsin D cDNA 1.25 μg/10 cm dish, 24 hours
  intracellular α-synuclein level, % of control levels: 68+/−17.7%
[2]; cathepsin D cDNA 2.5 μg/10 cm dish, 24 hours
  intracellular α-synuclein level, % of control levels: 53+/−16.8%
[2]; cathepsin D cDNA 5 μg/10 cm dish, 24 hours, n=11
  intracellular total α-synuclein level, % of control levels: 25.3+/−7.0%
[2]; cathepsin D co-expression
  αS-lowering effect, percent of total intracellular αS concentration detectable: ≤ 75%
